≈ marks a conversion by molar mass, not a printed value.
How the values were obtained:
Format in all cases: functional
Morganella morganii [1] = assay: Antibacterial activity against Morganella morganii isolate Mm1229 harboring IncL/M plasmid and blaIMP-4-qacG2-aacA4-catB3 array by Etest method in presence of clavulanic acid
Klebsiella pneumoniae [2] = assay: Antibacterial activity against Klebsiella pneumoniae Kp1239 transconjugant harboring IncL/M plasmid and blaIMP-4-qacG2-aacA4-catB3 array by Etest method in presence of clavulanic acid
Klebsiella pneumoniae [3] = assay: Antibacterial activity against Klebsiella pneumoniae isolate Kp149 harboring IncA/C plasmid and blaIMP-4-qacG2-aacA4-catB3 array by Etest method in presence of clavulanic acid
Escherichia coli [4] = assay: Antibacterial activity against Escherichia coli Ec221 transconjugant harboring IncA/C plasmid and blaIMP-4-qacG2-aacA4-catB3 array by Etest method in presence of clavulanic acid
Enterobacter cloacae [5] = assay: Antibacterial activity against Enterobacter cloacae El3518 transconjugant harboring IncL/M plasmid and blaIMP-4-qacG2-aacA4-catB3 array by Etest method in presence of clavulanic acid
Escherichia coli [6] = assay: Antibacterial activity against Escherichia coli isolate Ec9381 harboring IncL/M plasmid and blaIMP-4-qacG2-aacA4-catB3 array by Etest method in presence of clavulanic acid
Enterobacter cloacae [7] = assay: Antibacterial activity against Enterobacter cloacae El1573 transconjugant harboring IncL/M plasmid and blaIMP-4-qacG2-aacA4-catB3 array by Etest method in presence of clavulanic acid
Klebsiella pneumoniae [8] = assay: Antibacterial activity against Klebsiella pneumoniae isolate Kp38009 harboring IncL/M plasmid and blaIMP-4-qacG2-aacA4-catB3 array by Etest method in presence of clavulanic acid
Klebsiella pneumoniae [9] = assay: Antibacterial activity against Klebsiella pneumoniae isolate Kp7564 harboring IncL/M plasmid and blaIMP-4-qacG2-aacA4-catB3 array by Etest method in presence of clavulanic acid
Klebsiella oxytoca [10] = assay: Antibacterial activity against Klebsiella oxytoca isolate Ko1156 harboring IncL/M plasmid and blaIMP-4-qacG2-aacA4-catB3 array by Etest method in presence of clavulanic acid
Citrobacter amalonaticus = assay: Antibacterial activity against Citrobacter amalonaticus isolate Ca38009 harboring IncL/M plasmid and blaIMP-4-qacG2-aacA4-catB3 array by Etest method in presence of clavulanic acid
Klebsiella oxytoca [11] = assay: Antibacterial activity against Klebsiella oxytoca Ko0426 transconjugant harboring IncL/M plasmid and blaIMP-4-qacG2-aacA4-catB3 array by Etest method in presence of clavulanic acid
Klebsiella pneumoniae [12] = assay: Antibacterial activity against Klebsiella pneumoniae Kp204 transconjugant harboring IncA/C plasmid and blaIMP-4-qacG2-aacA4-catB3 array by Etest method in presence of clavulanic acid
Enterobacter cloacae [13] = assay: Antibacterial activity against Enterobacter cloacae isolate El3280 harboring IncL/M plasmid and blaIMP-4-qacG2-aacA4-catB3 array by Etest method in presence of clavulanic acid
Serratia marcescens [14] = assay: Antibacterial activity against Serratia marcescens isolate Sm211 harboring IncA/C plasmid and blaIMP-4-qacG2-aacA4-catB3 array by Etest method in presence of clavulanic acid
Serratia marcescens [15] = assay: Antibacterial activity against Serratia marcescens isolate Sm220 harboring IncA/C plasmid and blaIMP-4-qacG2-aacA4-catB3 array by Etest method in presence of clavulanic acid
Enterobacter cloacae [16] = assay: Antibacterial activity against Enterobacter cloacae El3518 transconjugant harboring IncL/M plasmid and blaIMP-4-qacG2-aacA4-catB3 array by Etest method
Serratia marcescens [17] = assay: Antibacterial activity against Serratia marcescens Sm2723 transconjugant harboring IncL/M plasmid and blaIMP-4-qacG2-aacA4-catB3 array by Etest method
Klebsiella pneumoniae [18] = assay: Antibacterial activity against Klebsiella pneumoniae isolate Kp3799 harboring IncL/M plasmid and blaIMP-4-qacG2-aacA4-catB3 array by Etest method
Morganella morganii [19] = assay: Antibacterial activity against Morganella morganii Mm38009 transconjugant harboring IncL/M plasmid and blaIMP-4-qacG2-aacA4-catB3 array by Etest method
Acinetobacter = assay: Antibacterial activity against Acinetobacter isolate A74510 harboring blaIMP-4-qacG2-aacA4-catB3 array by Etest method
Citrobacter koseri = assay: Antibacterial activity against Citrobacter koseri isolate Ck211 harboring IncA/C plasmid and blaIMP-4-qacG2-aacA4-catB3 array by Etest method
Klebsiella pneumoniae [20] = assay: Antibacterial activity against Klebsiella pneumoniae Kp7564 transconjugant harboring IncL/M plasmid and blaIMP-4-qacG2-aacA4-catB3 array by Etest method
Citrobacter youngae = assay: Antibacterial activity against Citrobacter youngae isolate CyB38 harboring blaIMP-4-qacG2-aacA4-catB3 array by Etest method
Serratia marcescens [21] = assay: Antibacterial activity against Serratia marcescens isolate Sm220 harboring IncA/C plasmid and blaIMP-4-qacG2-aacA4-catB3 array by Etest method
Klebsiella pneumoniae [22] = assay: Antibacterial activity against Klebsiella pneumoniae isolate Kp1945 harboring IncL/M plasmid and blaIMP-4-qacG2-aacA4-catB3 and dfrA12-orfF-aadA2 arrays by Etest method
Klebsiella oxytoca [23] = assay: Antibacterial activity against Klebsiella oxytoca Ko238 transconjugant harboring IncA/C plasmid and blaIMP-4-qacG2-aacA4-catB3 array by Etest method
Klebsiella pneumoniae [24] = assay: Antibacterial activity against Klebsiella pneumoniae isolate Kp38045 harboring IncL/M plasmid and blaIMP-4-qacG2-aacA4-catB3 array by Etest method
Klebsiella pneumoniae [25] = assay: Antibacterial activity against Klebsiella pneumoniae isolate Kp4614
Acinetobacter baumannii = assay: Antibacterial activity against Acinetobacter baumannii isolate AbN450 harboring […]-qacG2-aacA4-catB3 array by Etest method
Klebsiella pneumoniae [26] = assay: Antibacterial activity against Klebsiella pneumoniae Kp3799 transconjugant harboring IncL/M plasmid and blaIMP-4-qacG2-aacA4-catB3 array by Etest method
Serratia marcescens [27] = assay: Antibacterial activity against Serratia marcescens isolate Sm203 harboring IncA/C plasmid and blaIMP-4-qacG2-aacA4-catB3 array by Etest method
Klebsiella pneumoniae [28] = assay: Antibacterial activity against Klebsiella pneumoniae Kp38009 transconjugant harboring IncL/M plasmid and blaIMP-4-qacG2-aacA4-catB3 array by Etest method
Klebsiella pneumoniae [29] = assay: Antibacterial activity against Klebsiella pneumoniae Kp149 transconjugant harboring IncA/C plasmid and blaIMP-4-qacG2-aacA4-catB3 array by Etest method
Escherichia coli [30] = assay: Antibacterial activity against Escherichia coli isolate Ec9381 harboring IncL/M plasmid and blaIMP-4-qacG2-aacA4-catB3 array by Etest method
Klebsiella pneumoniae [31] = assay: Antibacterial activity against Klebsiella pneumoniae Kp204 transconjugant harboring IncA/C plasmid and blaIMP-4-qacG2-aacA4-catB3 array by Etest method
Enterobacter cloacae [32] = assay: Antibacterial activity against Enterobacter cloacae isolate El3518 harboring IncL/M plasmid and blaIMP-4-qacG2-aacA4-catB3 array by Etest method
Morganella morganii [33] = assay: Antibacterial activity against Morganella morganii isolate Mm38009 harboring IncL/M plasmid and blaIMP-4-qacG2-aacA4-catB3 array by Etest method
Serratia marcescens [34] = assay: Antibacterial activity against Serratia marcescens Sm265 transconjugant harboring IncA/C plasmid and blaIMP-4-qacG2-aacA4-catB3 array by Etest method
Escherichia coli [35] = assay: Antibacterial activity against Escherichia coli isolate Ec158 harboring IncA/C plasmid and blaIMP-4-qacG2-aacA4-catB3 array by Etest method

Row | Molecule | MIC (Enterobacter cloacae [16]) [µg/mL] | MIC (Serratia marcescens [17]) [µg/mL] | MIC (Klebsiella pneumoniae [18]) [µg/mL] | MIC (Morganella morganii [19]) [µg/mL] | MIC (Acinetobacter) [µg/mL] | MIC (Citrobacter koseri) [µg/mL] | MIC (Klebsiella pneumoniae [20]) [µg/mL] | MIC (Citrobacter youngae) [µg/mL] | MIC (Serratia marcescens [21]) [µg/mL] | MIC (Klebsiella pneumoniae [22]) [µg/mL] | MIC (Klebsiella oxytoca [23]) [µg/mL] | MIC (Klebsiella pneumoniae [24]) [µg/mL] | MIC (Klebsiella pneumoniae [25]) [µg/mL] | MIC (Acinetobacter baumannii) [µg/mL] | MIC (Klebsiella pneumoniae [26]) [µg/mL] | MIC (Serratia marcescens [27]) [µg/mL] | MIC (Klebsiella pneumoniae [28]) [µg/mL] | MIC (Klebsiella pneumoniae [29]) [µg/mL] | MIC (Escherichia coli [30]) [µg/mL] | MIC (Klebsiella pneumoniae [31]) [µg/mL] | also measured
1 | CC1(C)S[C@@H]2[C@H](NC(=O)[C@H](N)c3ccc(O)cc3)C(=O)N2[C@H]1C(=O)O [AMOXICILLIN] |  |  |  |  |  |  |  |  |  |  |  |  |  |  |  |  |  |  |  |  | MIC (Morganella morganii [1]): > 16 µg/mL; MIC (Klebsiella pneumoniae [2]): > 16 µg/mL; MIC (Klebsiella pneumoniae [3]): > 16 µg/mL; MIC (Escherichia coli [4]): > 16 µg/mL; MIC (Enterobacter cloacae [5]): > 16 µg/mL; MIC (Escherichia coli [6]): > 16 µg/mL; MIC (Enterobacter cloacae [7]): > 16 µg/mL; MIC (Klebsiella pneumoniae [8]): > 16 µg/mL; MIC (Klebsiella pneumoniae [9]): > 16 µg/mL; MIC (Klebsiella oxytoca [10]): > 16 µg/mL; MIC (Citrobacter amalonaticus): > 16 µg/mL; MIC (Klebsiella oxytoca [11]): > 16 µg/mL; MIC (Klebsiella pneumoniae [12]): > 16 µg/mL; MIC (Enterobacter cloacae [13]): > 16 µg/mL; MIC (Serratia marcescens [14]): > 16 µg/mL; MIC (Serratia marcescens [15]): > 16 µg/mL
2 | CO/N=C(\C(=O)N[C@@H]1C(=O)N2C(C(=O)O)=C(COC(C)=O)CS[C@H]12)c1csc(N)n1 [CEFOTAXIME] | 32 (≈ 70.3 µM) | 16 (≈ 35.1 µM) | > 32 | 32 (≈ 70.3 µM) | > 32 | > 32 | 32 (≈ 70.3 µM) | > 32 | > 32 | > 32 | 32 (≈ 70.3 µM) | 32 (≈ 70.3 µM) | > 32 | > 32 | 32 (≈ 70.3 µM) | > 32 | 32 (≈ 70.3 µM) | > 32 | > 32 | > 32 | MIC (Enterobacter cloacae [32]): > 32 µg/mL; MIC (Morganella morganii [33]): 32 µg/mL (≈ 70.3 µM); MIC (Serratia marcescens [34]): > 32 µg/mL; MIC (Escherichia coli [35]): > 32 µg/mL
3 | C[C@@H](O)[C@H]1C(=O)N2C(C(=O)O)=C(SCCNC=N)C[C@H]12 [IMIPENEM ANHYDROUS] | 2 (≈ 6.68 µM) | 2 (≈ 6.68 µM) | 4 (≈ 13.4 µM) | 2 (≈ 6.68 µM) | > 8 | ≤ 1 | 2 (≈ 6.68 µM) | 8 (≈ 26.7 µM) | > 8 | 8 (≈ 26.7 µM) | 2 (≈ 6.68 µM) | 0.75 (≈ 2.51 µM) | ≤ 1 | > 8 | 2 (≈ 6.68 µM) | 4 (≈ 13.4 µM) | ≤ 1 | 4 (≈ 13.4 µM) | 1.5 (≈ 5.01 µM) | 4 (≈ 13.4 µM) | MIC (Enterobacter cloacae [32]): 3 µg/mL (≈ 10 µM); MIC (Morganella morganii [33]): 3 µg/mL (≈ 10 µM); MIC (Serratia marcescens [34]): 2 µg/mL (≈ 6.68 µM); MIC (Escherichia coli [35]): ≤ 1 µg/mL
4 | NC[C@H]1O[C@H](O[C@H]2[C@H](O)[C@@H](O[C@H]3O[C@H](CO)[C@@H](O)[C@H](N)[C@H]3O)[C@H](N)C[C@@H]2N)[C@H](N)C[C@@H]1O [TOBRAMYCIN] | > 8 | 8 (≈ 17.1 µM) | > 8 | 8 (≈ 17.1 µM) | > 8 | 8 (≈ 17.1 µM) | 8 (≈ 17.1 µM) | > 8 | > 8 | > 8 | 8 (≈ 17.1 µM) | 8 (≈ 17.1 µM) | 8 (≈ 17.1 µM) | > 8 | 8 (≈ 17.1 µM) | > 8 | 8 (≈ 17.1 µM) | 8 (≈ 17.1 µM) | > 8 | 8 (≈ 17.1 µM) | MIC (Enterobacter cloacae [32]): > 8 µg/mL; MIC (Morganella morganii [33]): 4 µg/mL (≈ 8.56 µM); MIC (Serratia marcescens [34]): 8 µg/mL (≈ 17.1 µM); MIC (Escherichia coli [35]): 8 µg/mL (≈ 17.1 µM)
5 | GENTAMICIN | > 8 | > 8 | > 8 | > 8 | > 8 | > 8 | > 8 | > 8 | > 8 | > 8 | < 2 | > 8 | > 8 | > 8 | > 8 | > 8 | > 8 | > 8 | > 8 | < 2 | MIC (Enterobacter cloacae [32]): > 8 µg/mL; MIC (Morganella morganii [33]): > 8 µg/mL; MIC (Serratia marcescens [34]): < 2 µg/mL; MIC (Escherichia coli [35]): > 8 µg/mL

Reference: ChEMBL document CHEMBL1671859, “bla(IMP-4) in different genetic contexts in Enterobacteriaceae isolates from Australia” (2008)
